Among the data in patent US20070275961A1, “Triazolo ' 1, 5-A ! Pyrimidines and Their Use in Medicine” (VERNALIS (CAMBRIDGE) LIMITED., priority 2003, published 2007) are IC50 values, retold here.

Format in all cases: biochemical
In test [1] the target is CDK2 enzyme, complexed with cyclin A (Homo sapiens, UniProt P24941). Description: CDK2 cyclin dependent kinase assay, phosphorylation of synthetic peptide […] (33P-ATP filtration). The note with it: 0.1 mM ATP. The method, then:
The assay mixture containing the inhibitor and CDK2 enzyme, complexed with cyclin A (0.4 U/ml) was mixed together in a microtiter plate in a final volume of 50 μl and incubated for 40 min at 30° C. The assay mixture contained 0.1 mM unlabeled ATP, 0.01 μCi/μl ^33P-γ-ATP, 0.03 mM peptide, 0.1 mg/ml BSA, 7.5 mM magnesium acetate, 50 mM HEPES-NaOH, pH 7.5. The reaction was stopped by adding 50 μl of 50 mM phosphoric acid. 90 μl of the mixture were transferred to a pre-wetted 96-well Multiscreen MAPHNOB filtration plate (Millipore) and filtered on a vacuum manifold. The filter plate was washed with three successive additions of 200 μl 50 mM phosphoric acid and then with 100 μl methanol. The filtration plate was dried for 10 min at 65° C., scintillant added and phosphorylated peptide quantified in a scintillation counter (Trilux, PerkinElmer).
HEPES is N-[2-hydroxyethyl]piperazine-N′-[2-ethanesulfonic acid]. BSA is bovine serum albumin.

Test [2] deals with T1, PDK1 enzyme (Homo sapiens, UniProt O15530).
T1 sequence (O15530 1-556): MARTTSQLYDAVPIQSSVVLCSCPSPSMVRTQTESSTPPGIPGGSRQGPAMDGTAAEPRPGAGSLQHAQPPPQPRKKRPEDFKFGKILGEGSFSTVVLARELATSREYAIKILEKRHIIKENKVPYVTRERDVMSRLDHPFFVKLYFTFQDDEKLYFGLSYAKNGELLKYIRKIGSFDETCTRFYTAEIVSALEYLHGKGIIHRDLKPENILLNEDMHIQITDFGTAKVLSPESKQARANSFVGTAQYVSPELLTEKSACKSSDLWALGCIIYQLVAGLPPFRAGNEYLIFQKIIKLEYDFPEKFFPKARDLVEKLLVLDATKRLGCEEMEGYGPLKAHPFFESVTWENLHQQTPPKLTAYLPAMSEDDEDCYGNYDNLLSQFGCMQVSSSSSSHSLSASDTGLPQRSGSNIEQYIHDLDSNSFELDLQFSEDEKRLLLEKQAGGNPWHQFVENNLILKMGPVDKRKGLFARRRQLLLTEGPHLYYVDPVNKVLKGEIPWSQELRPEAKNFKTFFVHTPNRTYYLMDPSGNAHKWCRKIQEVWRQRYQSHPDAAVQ
Description: PDK1 3'-phosphoinositide-dependent kinase assay, phosphorylation of synthetic peptide (33P-ATP filtration). The note with it: 0.01 mM ATP, read-out: PDK1 IC50. Summed up: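 Radiometric peptide phosphorylation by PDK1 with inhibitor, 60 min at 30 °C, using 0.01 mM ATP plus 33P-γ-ATP, 0.075 mM peptide, 7.5 mM Mg acetate in Tris-HCl pH 7.5. Phosphoric acid stopped reaction; phosphorylated peptide captured on filter plates and counted by scintillation.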

For test [3], the target named is T2, Chk1 (Homo sapiens, UniProt O14757).
T2 sequence (O14757 1-476): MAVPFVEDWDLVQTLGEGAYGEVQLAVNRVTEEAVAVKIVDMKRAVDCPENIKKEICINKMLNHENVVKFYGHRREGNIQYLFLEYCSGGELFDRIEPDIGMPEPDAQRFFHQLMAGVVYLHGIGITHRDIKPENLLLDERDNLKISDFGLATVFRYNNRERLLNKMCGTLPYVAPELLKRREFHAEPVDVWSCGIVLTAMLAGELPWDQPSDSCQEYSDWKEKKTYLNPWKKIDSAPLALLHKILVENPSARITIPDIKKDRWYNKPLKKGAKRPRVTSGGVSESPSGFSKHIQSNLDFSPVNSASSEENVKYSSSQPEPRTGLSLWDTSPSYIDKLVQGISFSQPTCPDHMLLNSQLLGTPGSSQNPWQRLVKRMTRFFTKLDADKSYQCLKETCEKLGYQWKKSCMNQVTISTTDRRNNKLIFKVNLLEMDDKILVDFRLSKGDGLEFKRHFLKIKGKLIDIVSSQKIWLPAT
The test is described as follows: Chk1 kinase assay, phosphorylation of Chktide (33P-ATP filtration). The note with it: 0.01 mM ATP, read-out: Chk1 IC50. Summed up: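 GST-Chk1 (11 nM) with inhibitor, 30 μM Chktide peptide, 0.01 mM ATP plus 33P-γ-ATP in 50 mM Hepes pH 7.5 with 0.1 mg/ml BSA, 40 min at 30° C. Stopped with phosphoric acid; phosphorylated peptide captured on filter plates and scintillation-counted.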

pIC50: −log10 of the molar value. Where two headings read alike, the source gives them in different places.

The term pIC50 denotes the IC50 on a negative log10 scale, so that one unit is a factor of ten. In the case of `CC(C)N(CCO)c1cc(Nc2ccc(S(C)(=O)=O)cc2)n2ncnc2n1` [Example 87], the results for the negative-log IC50 (pIC50) in test [1] (Table 2), in test [2] (Table 2) and in test [3] (Table 2) were 5.83, less than 3.70 and less than 3.70, respectively.
Turning to `NS(=O)(=O)c1ccc(Nc2cc(N3CCCCC3)nc3ncnn23)cc1` [Example 34], the values for the pIC50 in test [1] (Table 1), in test [2] (Table 1) and in test [3] (Table 1) were 6.21, less than 3.70 and less than 3.70, respectively.
For `NS(=O)(=O)c1ccc(Nc2cc(NC(CCO)c3ccccc3)nc3ncnn23)cc1` (stereo not drawn) [Example 10], the pIC50 was 5.24 in test [1] (Table 1), less than 3.70 in test [2] (Table 1) and less than 3.70 in test [3] (Table 1).
In the case of `CN(C)S(=O)(=O)c1ccc(Nc2cc(-c3cccc(F)c3)n3ncnc3n2)cc1` [Example 129], the pIC50 is less than 3.70 in test [1] (Table 3), 4.51 in test [2] (Table 3) and 4.91 in test [3] (Table 3).
The like results for `OCCc1ccc(Nc2cc(-c3cccc(F)c3)n3ncnc3n2)cc1` [Example 111] were, in that order, less than 3.70, 4.28 and 5.02.
Regarding `CN(C)CCN(C)c1cc(Nc2ccc(S(C)(=O)=O)cc2)n2ncnc2n1` [Example 73], the pIC50 in test [1] (Table 2) is 4.65; in test [2] (Table 2), less than 3.70; in test [3] (Table 2), less than 3.70.
With `NS(=O)(=O)c1ccc(Nc2cc(-c3cccc(C(=O)O)c3)nc3ncnn23)cc1` [Example 27], the pIC50 was 4.85 in test [1] (Table 1), less than 3.70 in test [2] (Table 1) and less than 3.70 in test [3] (Table 1).
Consider `CS(=O)(=O)c1ccc(Nc2cc(Cl)nc3ncnn23)cc1` [Example 18], for which the pIC50 is 6.09 in test [1] (Table 1), less than 3.70 in test [2] (Table 1) and less than 3.70 in test [3] (Table 1).
On to `O=S(=O)(c1ccc(Nc2cc(Cl)nc3ncnn23)cc1)C(F)(F)F` [Example 64], for which the pIC50 in test [1] (Table 2) is 3.81; in test [2] (Table 2), less than 3.70; in test [3] (Table 2), less than 3.70.
For the compound `CS(=O)(=O)c1ccc(Nc2cc(-c3cccc(F)c3)n3ncnc3n2)cc1` [Example 119], the negative-log IC50 (pIC50) in test [1] (Table 3) was less than 3.70; in test [2] (Table 3) it was 3.94; in test [3] (Table 3), 5.59.
Turning to `NS(=O)(=O)c1ccc(Nc2cc(N3CCCC(CO)C3)nc3ncnn23)cc1` (stereo not drawn) [Example 23], the pIC50 in test [1] (Table 1) was 6.48; in test [2] (Table 1), less than 3.70; in test [3] (Table 1), less than 3.70.
`NS(=O)(=O)c1ccc(Nc2cc(N3CCCC(O)C3)nc3ncnn23)cc1` (stereo not drawn) [Example 67]: the pIC50 was 5.64 in test [1] (Table 2), less than 3.70 in test [2] (Table 2) and less than 3.70 in test [3] (Table 2).
In the case of `CS(=O)(=O)c1ccc(CNc2cc(Cl)nc3ncnn23)cc1` [Example 95], the pIC50 was 4.12 in test [1] (Table 2), less than 3.70 in test [2] (Table 2) and less than 3.70 in test [3] (Table 2).
In the case of `CCc1cc(OCCN)cc(-c2cc(Nc3ccc(C(N)=O)cc3)nc3ncnn23)c1` [Example 166], the pIC50 in test [1] (Table 4) is 5.59; in test [2] (Table 4), 5.92; in test [3] (Table 4), 5.57.
`CCN(CC)CCNC(=O)c1ccc(Nc2cc(-c3ccccc3)n3ncnc3n2)cc1` [Example 121]: the pIC50 was less than 3.70 in test [1] (Table 3), 4.81 in test [2] (Table 3) and 5.65 in test [3] (Table 3).
On to `CCN(CC)CCOc1cccc(-c2cc(Nc3ccc(C(N)=O)cc3)nc3ncnn23)c1` [Example 146], for which the pIC50 in test [1] (Table 4) is 5.26; in test [2] (Table 4) it was 5.12; in test [3] (Table 4), 4.68.
For `NCCOc1cccc(-c2cc(Nc3ccc(C(N)=O)cc3)nc3ncnn23)c1` [Example 151], the results for the pIC50 in test [1] (Table 4), in test [2] (Table 4) and in test [3] (Table 4) were 4.32, 6.60 and 5.52, respectively.
`COc1ccc(-c2cc(Nc3cccc(Cl)c3)n3ncnc3n2)nc1` [Example 54]: the pIC50 in test [1] (Table 1), in test [2] (Table 1) and in test [3] (Table 1) was less than 3.70 in each case.
Turning to `CCNc1cc(Nc2ccc(S(C)(=O)=O)cc2)n2ncnc2n1` [Example 80], the pIC50 in test [1] (Table 2) was 4.87; in test [2] (Table 2), less than 3.70; in test [3] (Table 2), less than 3.70.
Consider `CCN(CC)c1cc(Nc2ccc(S(=O)(=O)N(C)C)cc2)n2ncnc2n1` [Example 71], for which the pIC50 in test [1] (Table 2) was 6.23; in test [2] (Table 2) it was less than 3.70; in test [3] (Table 2), less than 3.70.
For the compound `CC(C)c1cc(Nc2ccc(C(N)=O)cc2)nc2ncnn12` [Example 115], the pIC50 in test [1] (Table 3) was 3.83; in test [2] (Table 3) it was less than 3.70; in test [3] (Table 3), 4.08.
Regarding `NS(=O)(=O)c1ccc(CNc2cc(OCC3CCCCC3)nc3ncnn23)cc1` [Example 57], the pIC50 in test [1] (Table 2) is 4.73; in test [2] (Table 2) it was less than 3.70; in test [3] (Table 2), less than 3.70.
With `CC(C)COc1cc(Nc2ccc(S(N)(=O)=O)cc2)n2ncnc2n1` [Example 14], the figures for the negative logarithm of the IC50 (pIC50) in test [1] (Table 1), in test [2] (Table 1) and in test [3] (Table 1) were 5.73, less than 3.70 and less than 3.70, respectively.
Turning to `NS(=O)(=O)c1ccc(Nc2cc(NCc3ccccc3)nc3ncnn23)cc1` [Example 58], the results for the pIC50 in test [1] (Table 2), in test [2] (Table 2) and in test [3] (Table 2) were 4.87, less than 3.70 and less than 3.70, respectively.
Regarding `CCN(CC)c1cc(Nc2ccc(S(=O)(=O)c3ccccc3)cc2)n2ncnc2n1` [Example 93], the pIC50 was 6.17 in test [1] (Table 2), less than 3.70 in test [2] (Table 2) and less than 3.70 in test [3] (Table 2).
Regarding `COc1ccc(C)cc1-c1cc(Nc2ccc(C(N)=O)cc2)nc2ncnn12` [Example 135], the pIC50 in test [1] (Table 3) is less than 3.70; in test [2] (Table 3) it was 4.97; in test [3] (Table 3), 3.97.
In the case of `CCN(CC)CCNC(=O)c1ccc(Nc2cc(C)n3ncnc3n2)cc1` [Example 120], the pIC50 in test [1] (Table 3) was less than 3.70; in test [2] (Table 3) it was less than 3.70; in test [3] (Table 3) it was 6.09.
Regarding `NC(=O)c1ccc(Nc2cc(Cc3ccccc3)n3ncnc3n2)cc1` [Example 123], the pIC50 in test [1] (Table 3) is less than 3.70; in test [2] (Table 3) it was less than 3.70; in test [3] (Table 3) it was 4.50.
On to `CCN(CC)CCNC(=O)c1ccc(Nc2cc(C(C)C)n3ncnc3n2)cc1` [Example 122], for which the pIC50 is less than 3.70 in test [1] (Table 3), less than 3.70 in test [2] (Table 3) and 4.64 in test [3] (Table 3).
As to `NS(=O)(=O)c1ccc(Nc2cc(N3CCOCC3)nc3ncnn23)cc1` [Example 24], the pIC50 in test [1] (Table 1) was 4.80; in test [2] (Table 1), less than 3.70; in test [3] (Table 1) it was less than 3.70.
In the case of `Cc1cccc(-c2cc(Nc3ccc(CCO)cc3)nc3ncnn23)c1` [Example 107], the pIC50 in test [1] (Table 3) was less than 3.70; in test [2] (Table 3), 4.83; in test [3] (Table 3) it was 4.37.
As for `CS(=O)(=O)c1ccc(Nc2cc(NC3CC3)nc3ncnn23)cc1` [Example 101], the values for the negative logarithm of the IC50 (pIC50) in test [1] (Table 2), in test [2] (Table 2) and in test [3] (Table 2) were 4.82, less than 3.70 and less than 3.70, respectively.
Take `CCN(CC)c1cc(Nc2ccc(S(=O)(=O)N3CCC(O)CC3)cc2)n2ncnc2n1` [Example 72]: the pIC50 in test [1] (Table 2) was 6.42; in test [2] (Table 2), less than 3.70; in test [3] (Table 2), less than 3.70.
For the compound `COc1cc(Nc2cc(Cl)nc3ncnn23)c(Cl)cc1C(=O)O` [Example 90], the pIC50 in test [1] (Table 2) was 3.99; in test [2] (Table 2), less than 3.70; in test [3] (Table 2), less than 3.70.
